Patent publication US8093273B2, “Flavanoids and isoflavanoids for the prevention and treatment of cardiovascular diseases” (Resverlogix Corp., priority 2004, dated 2012)
In brackets after ≈: the same amount, converted by molar mass. Like-named read-outs stand apart in the source and are kept apart here.

Experiments:
Caco-2 permeability = type: in vitro ADME, human; settings: human, Caco-2
From the text: (§1) The Caco-2 cell drug transport model is widely used for screening compounds in drug discovery to assess intestinal transport and predict absorption rates.

human ApoA-I promoter [1] = assay: ApoA-I promoter induction in Caco-2 intestinal cells (pAI.474-Luc luciferase reporter); type: cell-based; settings: Caco-2 cells, 15 μM, 48 hours incubation, luciferase activity vs control samples
Method in brief: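 Caco-2 cells stably carrying the human ApoA-I promoter–firefly luciferase construct (pAI.474-Luc) were starved 24 h in 0.5% FBS medium, then exposed to compound at 0 to 100 μM final for 48 h at 37° C. Luciferase activity in lysates was normalized to Bradford protein and compared with solvent-only and untreated controls.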

[2] = Solubility analysis in PBS (HPLC-UV); type: physicochemical; settings: aqueous buffer, thermodynamic from solid; 1 mg in 1 mL PBS, sonicated 1 hour, 25° C. for 3 hrs
Description: Samples were then centrifuged at 14,000 rpm for 6 minutes at room temperature. The supernatant was diluted with acetonitrile and was removed for analysis. Analysis was performed using HPLC-UV with 7-point standard curve to determine the concentration. The average concentration calculated is regarded as the solubility (μM).

hApoA-I transgenic mice = assay: hApoA-I transgenic mice, oral gavage for 14 days; type: in vivo; settings: for change in vivo at 10 mg/kg: Mus musculus, po, 336 h, 10 mg/kg BID 14 days, relative to pretreatment, read-out: ApoA-I (% change)
From the text: To test whether the efficacy of compounds of the invention observed in vitro extended to an in vivo model, transgenic mice carrying multiple copies of the human ApoA-I gene (C57BI/6-tgn(apoa1)1 rub, Jackson Laboratory, Bar Harbor, Me.) were exposed to representative compounds of the invention. The exogenous human ApoA-I gene in these mice enables them to express the human ApoA-I protein under the control of this promoter.
Seven to eight week old male mice, transgenic for human ApoA-I were housed five per cage (10″×20″×8″ with aspen chip bedding) with pelleted Rodent chow [Purina 5001] and water available at all times. After an acclimation period of 1 week, animals were individually identified by numbering on tail and weighed. Mice were pre bled via the retro-orbital plexus, and 150 μl of blood was collected in 1.5 ml Eppendorf tube containing 1 μl of heparin and chilled on ice. Plasma was collected after centrifuging the whole blood at 14000 rpm [TOMY high speed micro-refrigerated centrifuge NTX-150] for 10 minutes at 4° C. and frozen at −80° C. Plasma was analyzed for: human ApoA-I by a human ApoA-I enzyme-linked Immunoassay [Direct Sandwich ELISA Calbiochem Cat#178422, Calbiochem Cat#178452, lot #B9076, Calbiochem Cat #178470 conjugated to Horse Radish Peroxidase (Cedarlane Cat#80220)]; total cholesterol [Ponte scientific reagents: # C7509-STD, #L7580-18, # C7510]; and triglyceride [Pointe Scientific Reagents: # 7532-STD, # L7580-18, #7532]. All samples were measured in triplicates and expressed as mg/dl. Mice were grouped based on the above plasma parameters and having an average body weight of 25 gm.
Two days following pre-bleed, mice were dosed by oral gavage daily for 14 days using a 20 gauge, 11/2″ curved disposable feeding needle [Popper & Sons]; when BID, mice were gavaged morning and afternoon (8 am and 5 pm); when SID mice were gavaged in morning (8 am). Compounds were prepared each day in vehicle. Test article(s), a positive control fenofibrate, and vehicle were dosed at volume of 5 mL/kg of body weight as a suspension (0.1 mL/20 g mouse). Fenofibrate was obtained commercially [SIGMA #F 6020]. Mice weights were recorded on day 1, 4, 7, 10, 12, and 15. On day 15, mice were weighed and fasted for 4 hours, sacrificed by inhalation of CO2 and blood was obtained via cardiac puncture (0.7-1.0 ml). Plasma was collected and frozen at −80° C. Samples were assayed for ApoA-I, total cholesterol, triglyceride and HDL-C by HPLC [Polaris 200 with an auto sampler Prostar 410 from Varian on a Superose 6 10/30 column from Amersham]. Samples were sent for NMR analysis [LipoScience] to identify particle size and subclass for lipoproteins. During necropsy, liver, brown fat, and the whole of small and large intestines were collected, cleaned with cold PBS and frozen at −80° C. for further analysis of compound levels. Variation between studies, in ApoA-I changes, was observed. Therefore, a relative comparison between individual(s) in the study groups was used.
4′-hydroxyflavone (10 mg/kg of body weight), 4-(4-oxo-4H-chromen-2-yl)phenyl nicotinate (Example 71) (10 mg/kg of body weight) and fenofibrate (100 mg/kg of body weight) were BID administered to hApoA-I transgenic mice daily for fourteen days by oral gavage in 0.5% Methylcellulose (w/v)/1% Tween 80 (w/v). Plasma was assayed for ApoA-I (FIG. 3A), HDL cholesterol and total cholesterol (FIG. 3B) and percent weight gain (FIG. 3C).
4′-hydroxyflavone (3 mg/kg of body weight), 4′-hydroxyflavone (10 mg/kg of body weight), 4′-hydroxyflavone (30 mg/kg of body weight), 2-(4-Hydroxy-phenyl)-pyrano[2,3-b]pyridin-4-one (10 mg/kg of body weight), and fenofibrate (100 mg/kg of body weight) were BID administered to hApoA-I transgenic mice daily for fourteen days by oral gavage in 0.5% methylcellulose (w/v)/1% Tween 80 (w/v). In this experiment plasma was assayed for ApoA-I. […]

human ApoA-I promoter [3] = assay: ApoA-I promoter induction in HepG2 liver cells (pAI.474-Luc luciferase reporter); type: cell-based; settings: average values at 15 μM, 48 hours incubation
Description: This study determined whether compounds of the invention have an effect on ApoA-I promoter activity expression in HepG2 cells, a liver cell line. Cells were grown under conditions recommended by the ATCC and summarized by Wong.
The promoter region of the gene encoding human ApoA-I was isolated and ligated upstream the structure gene of firefly luciferase to construct a reporter plasmid (pAI.474-Luc). The reporter plasmid, along with pRSV-β-galactosidase (as a control for transfection efficiency), were co-transfected into HepG2 cells. The cells were then incubated in an MEM selection media containing 20% fetal calf serum supplemented with G418 (final concentration: 0.5 mg/mL, Gibco) to give established strains that stably express from the reporter gene. The strains were seeded to a 6-well culture plates and incubated for 48 hours at 37° C. under 5% carbon dioxide. Cells were starved for 24 hrs in MEM selection media containing 0.5% FBS. Then, a solution of the compounds of the invention in DMSO (or other appropriate solvent) was added to the wells at a final concentration of 0 to 100 μM in MEM selection media containing 0.5% FBS.
After further incubation for 48 hours, the cells were harvested and lysed using Reporter Lysis Buffer (PROMEGA E3971), and 50 μL of luciferase assay reagent (PROMEGA E4550 Luciferase Reporter 1000 assay system) were added to measure luciferase activity with a luminometer (Fluoroskan Ascent FL from Thermo electron Corporation). Luciferase activity was normalized to lysate protein concentrations, measured using Bradford Reagent (Biorad Protein Assay reagent Cat #500-0006).

ApoA-I protein = ApoA-I protein expression in HepG2 cells (ELISA of conditioned media); type: cell-based, human; settings: 7.5 μM; for ApoA-I content in the medium (ELISA): 6 and 24 hours, vs untreated cells and cells treated with solvent; for time after addition of compound at which ApoA-I levels in the medium start to increase: time course 0, 6, 24 hours
Description: This study confirmed that compounds of the invention have an effect on ApoA-I protein secretion in HepG2 (liver) cells by measuring whether stimulation of transcriptional activity of the endogenous ApoA-I promoter in the HepG2 cells increased the abundance and secretion of ApoA-I protein.
The HepG2 cell line was obtained from the ATCC and cultured in MEM media supplemented with 10% FBS (Gibco), with 1 mM sodium pyruvate, 0.1 mM MEM non-essential amino acid, 2 mM L-glutamine, 100 U/ml penicillin, 100 μg/ml streptomycin and 5 μg/ml plasmocin. Cells were maintained at 37° C. in an atmosphere of 5% CO2 Cells were grown to 85% confluency prior to initiating the experiment.
Cells were plated and allowed to adhere overnight in a phenol red-free DMEM containing 10% of Charcoal/Dextran treated FBS (Hyclone), with 1 mM sodium pyruvate, 0.1 mM MEM non-essential amino acid, 2 mM L-glutamine, 100 U/ml penicillin, 100 μg/ml streptomycin and 5 μg/ml plasmocin. The medium was removed, and cells were washed in 1×PBS. Cells were then starved in phenol red-free DMEM (serum free) for a period of 24 hours. Cells were then mock treated (untreated, DMSO), or treated with compound of the invention diluted in phenol red-free DMEM (serum free) media at a concentration of 7.5 μM. Cells and media were harvested at 0, 6 and 24 hours following compound treatment.
Medium was removed from cells at the desired times and applied to a solid phase capture sandwich in an ELISA assay according to manufacturer's instructions (Total human Apolipoprotein ELISA Assay-Alercheck).

Caco-2 cells = assay: Caco-2 permeability; type: in vitro ADME, human; settings: in vitro Caco-2 intestinal transport model
From the text: as §1

[4] = subjects with low HDL-C; Rubins et al. 1999; cited from earlier work
human ApoA-I promoter [5] = assay: Kinetics of ApoA-I promoter induction in Caco-2 cells transfected with pAI.474-Luc; type: cell-based; settings: time points from 4 to 72 hours
Description: Accordingly, the kinetics of induction of the ApoA-I promoter were assessed.
Caco-2 cells transfected with pAI.474-Luc were treated with compounds of the invention at selected time points varying from 4 to 72 hours. This construct pAI.474-Luc contained the human ApoA-I promoter fused to the reporter gene, firefly luciferase (Luc).
Further, maximal stimulation appeared following 48 hour exposure. […] Maximal stimulation appeared following 48 hour exposure to the compound.

[6] = Table 6 fourth group, Control 3 1.11

| Compound | Papp (Caco-2 permeability) | melting point | ApoA-I Promoter Induction (human ApoA-I promoter [1]) | solubility at 3 h [2] | also measured |
| --- | --- | --- | --- | --- | --- |
| O=c1[nH]c(-c2ccc(O)cc2)cc2ccccc12 [Example 53, 3-(4-hydroxyphenyl)-2H-isoquinolin-1-one] | 1.76 ×10⁻⁶ cm/s | 239 to 241 °C | increased | 44.9 µM (≈ 10.7 µg/mL) | change in vivo at 10 mg/kg (hApoA-I transgenic mice; [6]): 13.2%; ApoA-I Promoter Induction (human ApoA-I promoter [3]): increased |
| Cc1c(-c2ccc(O)cc2)oc2ccccc2c1=O [Example 24, 2-(4-hydroxyphenyl)-3-methyl-4H-chromen-4-one] |  | 241 to 242 °C |  |  | ApoA-I content in the medium (ELISA) (ApoA-I protein): increased significantly; time after addition of compound at which ApoA-I levels in the medium start to increase (ApoA-I protein): ~6 h |
| O=c1cc(-c2ccc(O)cc2)oc2cc(O)cc(O)c12 [5,7-dihydroxy-2-(4-hydroxyphenyl)-4H-chomen-4-one] [reference compound] |  |  |  |  | % Transported Paap (Caco-2 cells): 1.5 ×10⁻⁶ cm/s; ApoA-I Promoter Induction (human ApoA-I promoter [3]): increased |
| O=c1cc(-c2ccc(O)c(F)c2)oc2ncccc12 [Example 37, 2-(3-fluoro-4-hydroxyphenyl)pyrano[2,3-b]pyridine-4-one] | 2.06 ×10⁻⁶ cm/s | 267 to 268 °C | increased | 194 µM (≈ 50 µg/mL) | change in vivo at 10 mg/kg (hApoA-I transgenic mice; Table 6 second group, Control 1 3.42): 14.4% |
| O=c1cc(-c2ccc(O)c(Br)c2)oc2ncccc12 [Example 42, 2-(3-bromo-4-hydroxyphenyl)-4H-pyrano[2,3-b]pyridin-4-one] | 0.959 ×10⁻⁶ cm/s | 267 to 272 °C | increased | 52.6 µM (≈ 16.7 µg/mL) |  |
| O=c1cc(-c2ccc(O)cc2)oc2ccncc12 [Example 39, 2-(4-hydroxyphenyl)-4H-pyrano[3,2-c]pyridine-4-one] | 1.21 ×10⁻⁶ cm/s | 306 to 308 °C | increased | 31.6 µM (≈ 7.56 µg/mL) | change in vivo at 10 mg/kg (hApoA-I transgenic mice; [6]): 11.2% |
| Cc1ccc(C)c(OCCCC(C)(C)C(=O)O)c1 [gemfibrozil] |  |  |  |  | increase in the HDL-C level [4]: 6%; reduction of the CHD risk [4]: 22% |
| Oc1ccc(-c2cc3ncccc3cn2)cc1 [Example 57, 4-(1,6-naphthyridin-7-yl)phenol] | 5.34 ×10⁻⁶ cm/s | 219 to 221 °C | increased |  | ApoA-I content in the medium (ELISA) (ApoA-I protein): increased significantly; time after addition of compound at which ApoA-I levels in the medium start to increase (ApoA-I protein): ~6 h; change in vivo at 10 mg/kg (hApoA-I transgenic mice; [6]): 9.49% |
| O=c1cc(-c2ccc(O)cc2)oc2ccccc12 [4′-hydroxyflavone, reference compound] | 4.31 ×10⁻⁶ cm/s |  |  | 5.04 µM (≈ 1.2 µg/mL) | exposure time of maximal stimulation of ApoA-I promoter activity (human ApoA-I promoter [5]): 48 h; plasma ApoA-I, net % change over vehicle (hApoA-I transgenic mice; Experiment A, 10 mg/kg BID oral gavage, 14 days, 0.5% methylcellulose/1% Tween 80): 32.44%; HDL cholesterol, net % change (hApoA-I transgenic mice; Experiment A, 10 mg/kg BID oral gavage, two weeks, NMR lipoprotein profile): 12.6%; liver weight gain normalized to body weight, compared to vehicle (hApoA-I transgenic mice; Experiment A, 10 mg/kg BID, day 15, male mice): minor changes; change in ApoA-I over vehicle (hApoA-I transgenic mice; Experiment B, 3 and 30 mpk BID oral gavage, 14 days): lack of statistically significant change; plasma ApoA-I, net % change over vehicle (hApoA-I transgenic mice; Experiment B, 10 mpk BID oral gavage, two weeks): 31.24%; ApoA-I Promoter Induction (human ApoA-I promoter [3]): increased |
| COc1ccc(-c2cc(=O)c3cccnc3o2)cc1 [Example 44, 2-(4-methoxyphenyl)-4H-pyrano[2,3-b]pyridine-4-one] |  | 269 to 270 °C | increased |  | ApoA-I content in the medium (ELISA) (ApoA-I protein): increased significantly; time after addition of compound at which ApoA-I levels in the medium start to increase (ApoA-I protein): ~6 h |
| O=c1cc(-c2ccc(O)cc2)oc2cc(O)cc(O)c12 [5,7-Dihydroxy-2-(4-hydroxy-phenyl)-chromen-4-one, reference compound] |  |  | increased |  | exposure time of maximal stimulation of ApoA-I promoter activity (human ApoA-I promoter [5]): 48 h |
